# Reference: publication PMC3060409 (Biochemical and biophysical research communications, 2011)
# Ends that are not written are not given here.
# Legend:
# [1] = test system: ARPE-19 cells (SOPT1 and SOPT2); type: cell-based, human; conditions: naloxone 1 mM, 15 min preincubation, FITC-hepcidin 2.5 μM
# SOPT1 and SOPT2 = conditions: ref [5]; cited from earlier work
# HFE mRNA = HFE mRNA levels, RT-PCR; type: cell-based; conditions: mouse primary RPE; hepcidin 2 μg/ml, 8 h
# ferroportin mRNA [2] = assay: Ferroportin mRNA levels, semi-quantitative RT-PCR; type: cell-based; conditions: mouse primary RPE; hepcidin 2 μg/ml, 8 h; HPRT1 internal control
# ferroportin = conditions: target cells; ref [14]; cited from earlier work
# hemojuvelin = assay: Hemojuvelin expression; type: cell-based; conditions: mouse RPE; hepcidin treatment; data not shown
# [3] = test system: SOPT1 ([3H]-deltorphin II uptake in mouse RPE cells); assay: Inhibition/stimulation of [3H]-deltorphin II uptake in mouse primary RPE cells; type: cell-based, mouse (C57/Bl6); conditions: [3H]-deltorphin II 20 nM, 30 min
# transferrin = assay: Transferrin expression; type: cell-based; conditions: mouse RPE; hepcidin treatment; data not shown
# [4] = test system: SOPT2 ([3H]-DADLE uptake in mouse RPE cells); assay: Inhibition of [3H]-DADLE uptake in mouse primary RPE cells; type: cell-based, mouse (C57/Bl6); conditions: hepcidin 25 μM, [3H]-DADLE 10 nM, 30 min
# transferrin receptor 1 = assay: Transferrin receptor 1 expression; type: cell-based; conditions: mouse RPE; hepcidin treatment; data not shown
# [5] = test system: SOPT2 ([3H]-DADLE uptake in RPE cells); assay: Inhibition of [3H]-DADLE uptake in human RPE cells; type: cell-based
# [6] = test system: SOPT1 ([3H]-deltorphin II uptake in RPE cells); assay: Inhibition of [3H]-deltorphin II uptake in human RPE cells; type: cell-based; conditions: [3H]-deltorphin II 20 nM, 30 min
# ferroportin mRNA [7] = assay: Ferroportin mRNA levels, real-time RT-PCR; type: cell-based; conditions: mouse primary RPE; hepcidin 2 μg/ml, 8 h; P < 0.001 (Fig. 4)
# SOPT1 = conditions: ref [2]; cited from earlier work
compound,measurement,setting,value
C=CCN1CC[C@]23c4c5ccc(O)c4O[C@H]2C(=O)CC[C@@]3(O)[C@H]1C5 [naloxone],effect on FITC-hepcidin uptake (flow cytometry),[1],did not alter the uptake
"HIV-Tat47–57: exogenous oligopeptide recognized by SOPT1 and SOPT2 (YGRKKRRQRRR; Tat; UniProt P04608 47-57, looked up, fragment)",recognition by SOPT1 and SOPT2,SOPT1 and SOPT2,recognize
DTHFPICIFCCGCCHRSKCGYCCKT (cysteine pairing not given here) [hepcidin],HFE mRNA levels,HFE mRNA,no effect on HFE mRNA levels
same,ferroportin mRNA levels (RT-PCR),ferroportin mRNA [2],significant reduction in ferroportin mRNA levels
same,binding to ferroportin with internalization and degradation,ferroportin,binds to ferroportin on target cells and that this complex gets internalized with subsequent degradation
same,hemojuvelin expression,hemojuvelin,none of these genes was altered
same,inhibition of deltorphin II uptake,"[3]; hepcidin 25 μM, mouse primary RPE",almost completely inhibited
same,transferrin expression,transferrin,none of these genes was altered
same,inhibition of DADLE uptake,[4],almost completely inhibited
same,transferrin receptor 1 expression,transferrin receptor 1,none of these genes was altered
same,dose dependence of DADLE uptake inhibition,"[5]; [3H]-DADLE 10 nM, 30 min, Fig. 1C",dose-dependent
same,dose dependence of deltorphin II uptake inhibition,"[6]; RPE cells, Fig. 1B",dose-dependent
same,IC50,"[6]; read-out: IC50, inhibition of deltorphin II uptake, ARPE-19 cells, 25 mM HEPES/Tris pH 7.5, 140 mM NaCl, means ± S.E., three independent experiments in duplicate",0.42 ± 0.12 µM
same,ferroportin mRNA levels (real-time RT-PCR),ferroportin mRNA [7],decrease in ferroportin mRNA levels was confirmed
"[tyrosyl-3,5–^3H(N)]DADLE [[^3H]-DADLE]",non-mediated diffusional component of uptake,"[5]; [3H]-DADLE uptake in presence of 1 mM unlabeled DADLE, pH 7.5",< 5 % of measured total uptake
Gly-Gly-Ile,effect on deltorphin II uptake (stimulation),"[3]; mouse RPE cells, Gly-Gly-Ile 1 mM",stimulated deltorphin II uptake
same,stimulation of SOPT1,SOPT1,potent stimulator of SOPT1
